Test results reported in patent US8865686B2, “Tetracycline compounds as tyrosyl-DNA phosphodiesterase I inhibitors” (The United States of America, as Represented by the …, priority 2006, dated 2014).

How the values were obtained:
[1] = target: T1, Recombinant Tdp1 (Homo sapiens (Human), UniProt Q9NUW8); assay: Secondary radiolabel gel-based Tdp1 assay (N14Y substrate); format: biochemical
Protocol: One nanomolar of 5′-^32P-labeled substrate (N14Y; 5′-[…]-Tyrosine-3′) was incubated with 0.1 nM recombinant Tdp1 in the absence or presence of inhibitor for 20 min at 25° C. in a reaction buffer containing 50 mM Tris-HCl (pH 7.5), 80 mM KCl, 2 mM EDTA, and 40 μg/ml BSA. Reactions were terminated by the addition of one volume of gel loading buffer (96% (v/v) formamide, 10 mM EDTA, 1% (w/v) xylene cyanol and 1% (w/v) bromphenol blue). The samples were subsequently heated to 95° C. for 5 min and subjected to 20% denaturing PAGE. When the Tdp1 mutant H493R (100 nM) was employed, the reactions were stopped with one volume of SDS loading dye and analyzed by 4-20% SDS-PAGE. All gels were dried and exposed on a PhosphorImager screen. Imaging and quantification were done using a Typhoon 8600 and ImageQuant software (GE Healthcare, Piscataway, N.J.).
Activity of certain compounds was also tested in secondary radiolabel gel-based assays (Inamdar et al., J. Biol. Chem. 277:27162-27168 (2002); Davies et al., J. Mol. Biol. 324:917-932 (2002)).

[2] = target: T1, Recombinant Tdp1; assay: AlphaScreen Tdp1 assay (qHTS, FITC/biotin phosphotyrosine DNA substrate); format: biochemical
Protocol: Tween-20, KCl, fluorescein isothiocyanate (FITC), and PBS were procured from Sigma-Aldrich. DMSO certified ACS grade was obtained from Fisher. The AlphaScreen FITC/streptavidin detection kit was from PerkinElmer Life and Analytical Sciences (Waltham, Mass.). Assay buffer consisted of PBS, pH 7.4, 80 mM KCl and 0.05% Tween-20. Recombinant Tdp1 was expressed and purified as described elsewhere (Antony et al., Nucleic Acids Research 35:4474-4484 (2007). The Sigma-Aldrich LOPAC^1280 library of 1280 known bioactives was received as DMSO solutions at initial concentration of 10 mM and plated as described elsewhere (Inglese et al., Proc. Natl. Acad. Sci. USA 103:11473-11478 (2006); Yasgar et al., J. Assoc. Lab. Automat. 13:78-89 (2008)).
The biotinylated phosphotyrosine deoxyoligonucleotide (5′ biotin-[…]-pY) was synthesized, purified, and QC-tested by Midland Certified Reagent Company, Midland, Tex. Standard overnight 4° C. FITC coupling was performed in-house. The FITC-labeled substrate was purified on Biospin-6 desalting columns (Bio-Rad, Hercules, Calif.) and its concentration was determined by UV-vis spectrophotometry.
Assay reaction mixtures and substrate/beads titrations were initially performed at 20 μl final volume in 384-well plates. For the subsequent 1,536-well based experiments, Flying Reagent Dispenser (FRD, Aurora Discovery, presently Beckman-Coulter) was used to dispense reagents into the assay plates, while a pintool was used to deliver DMSO solutions of the test inhibitors. Plates were read on Envision plate reader (PerkinElmer) equipped with AlphaScreen optical detection module. For testing the effect of enzyme reaction conditions on the IC50 values for select inhibitors, the respective compounds were prepared as 24-point twofold intra-plate dilution series and assayed as described.
Three μl of reagents (buffer in columns 3 and 4 as negative control and 1.33 nM Tdp1 in columns 1, 2, 5-48) were dispensed into 1,536-well black solid bottom plate. Compounds (final concentrations in the range of 0.7 nM to 57 μM) were transferred via Kalypsys pintool equipped with 1,536-pin array. The plate was incubated for 15 min at room temperature, and then 1 μl of substrate (15 nM final concentration) was added to start the reaction. After 5 min incubation at room temperature, 1 μl of bead mix (15 μg/mL final concentration) was added and the plate was further incubated for 10 min at room temperature prior to signal measurement. Substrate and beads were prepared and kept in amber bottles to prevent photo-degradation. Library plates were screened starting from the lowest and proceeding to the highest concentration. Vehicle-only plates, with DMSO being pin-transferred to the entire column 5-48 compound area, were included at the beginning and the end of the screen in order to record any systematic shifts in assay signal. Screening data were corrected, normalized, and curve-fitted by using in-house developed algorithms.
To configure an assay for Tdp1, we utilized the ability of the AlphaScreen system to report on the integrity of the phosphotyrosine-based substrate, viewed here as a multi-site analyte. The AlphaScreen signal is a direct consequence of the close proximity of donor and acceptor beads, which is achieved by the formation of a ternary donor-analyte-acceptor recognition complex. To realize the AlphaScreen assay using the consensus DNA-pY substrate for Tdp1, 5′[…]pY, recognition elements for both bead types had to be introduced. To this end, we coupled a fluorescein isothiocyanate (FITC) to the amino group of tyrosine in a phosphotyrosine-containing single stranded DNA substrate bearing a biotin at its 5′ end. […] Conversely, if the Tdp1 catalysis was inhibited, an elevated signal would be observed for that sample.

[3] = 1,536-well AlphaScreen qHTS, N/D = not detectable, read-out: Activity (qHTS) IC50
[4] = 1 nM N14Y, 0.1 nM Tdp1, 20 min at 25° C., N/D = not detectable, read-out: Activity (Gel)

T1 sequence (Q9NUW8 whole entry): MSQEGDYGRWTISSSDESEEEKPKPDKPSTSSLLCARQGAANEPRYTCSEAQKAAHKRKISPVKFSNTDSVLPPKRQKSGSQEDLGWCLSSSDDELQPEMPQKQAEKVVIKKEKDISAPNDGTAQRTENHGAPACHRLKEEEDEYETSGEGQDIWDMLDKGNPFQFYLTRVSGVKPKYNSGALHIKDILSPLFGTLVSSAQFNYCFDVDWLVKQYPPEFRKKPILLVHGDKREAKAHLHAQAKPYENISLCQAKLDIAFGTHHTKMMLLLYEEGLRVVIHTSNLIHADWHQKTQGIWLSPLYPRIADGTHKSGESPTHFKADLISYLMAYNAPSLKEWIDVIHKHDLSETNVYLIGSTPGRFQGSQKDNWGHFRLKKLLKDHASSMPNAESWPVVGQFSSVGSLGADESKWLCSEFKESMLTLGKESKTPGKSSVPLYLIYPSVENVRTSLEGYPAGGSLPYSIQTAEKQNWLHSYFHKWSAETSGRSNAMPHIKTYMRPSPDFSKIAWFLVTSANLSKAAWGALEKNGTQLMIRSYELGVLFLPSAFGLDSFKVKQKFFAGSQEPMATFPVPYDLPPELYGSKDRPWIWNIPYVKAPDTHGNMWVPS

Structure (SMILES)	IC50 [2, 3] [µM]	IC50 [1, 4] [µM]	also measured
CN(C)[C@H]1C(O)=C(C(=O)NCN2CCCC2)C(=O)[C@]2(O)C(O)=C3C(=O)c4c(O)cccc4[C@](C)(O)[C@H]3C[C@H]12	0.2	–	IC50 ([1]; 1 nM N14Y, 0.1 nM Tdp1, value printed with question mark, read-out: Activity (Gel)): < 0.1 µM
CN(C)C1C(=O)C(C(N)=O)C(=O)C2(O)C(=O)C3C(=O)c4c(O)cccc4C(C)(O)C3C(O)C12 (centres unmarked)	–	–	IC50 [1]: 5 µM; IC50 [2]: 0.2 µM
CN(C)C1C(O)=C(C(N)=O)C(=O)[C@@]2(O)C(O)=C3C(=O)c4c(O)cccc4[C@](C)(O)C3C(O)C12 (some centres unmarked)	0.63	8	–
CN(C)[C@H]1C(O)=C(C(=O)NCN2CCCC2)C(=O)[C@]2(O)C(O)=C3C(=O)c4c(O)cccc4[C@@](C)(O)[C@H]3C[C@@H]12	1.26	30.2	–
CN(C)[C@@H]1C(O)=C(C(N)=O)C(=O)[C@]2(O)C(O)=C3C(=O)c4c(O)ccc(Cl)c4[C@](C)(O)[C@H]3C[C@@H]12	2.82	13.2	–
CN(C)C1C(O)=C(C(N)=O)C(=O)[C@]2(O)C(O)=C3C(=O)c4c(O)cccc4[C@](C)(O)C3C(O)C12 (some centres unmarked)	3.16	10	–
CN(C)C1C(O)=C(C(N)=O)C(=O)[C@@]2(O)C(O)=C3C(=O)c4c(O)ccc(Cl)c4[C@](C)(O)C3CC12 (some centres unmarked)	3.16	20	–
CN(C)C1C(O)=C(C(N)=O)C(=O)[C@@]2(O)C(O)=C3C(=O)c4c(O)cccc4[C@@](C)(O)C3[C@H](O)C12 (some centres unmarked)	4.47	3	–
CN(C)[C@H]1C(O)=C(C(N)=O)C(=O)[C@]2(O)C(O)=C3C(=O)c4c(O)cccc4[C@@](C)(O)[C@H]3C[C@@H]12	14.1	10	–
CN(C)C1C(O)=C(C(N)=O)C(=O)[C@@]2(O)C(O)=C3C(=O)c4c(O)cccc4[C@@](C)(O)C3C[C@@H]12 (some centres unmarked)	10	–	–
CN(C)[C@H]1C(O)=C(C(=O)NCN[C@@H](CCCCN)C(=O)O)C(=O)[C@]2(O)C(O)=C3C(=O)c4c(O)cccc4[C@@](C)(O)[C@H]3C[C@@H]12	12.6	–	–
CN(C)C1C(O)=C(C(N)=O)C(=O)[C@@]2(O)C(O)=C3C(=O)c4c(O)cccc4[C@@](C)(O)C3CC12.Cl (some centres unmarked)	–	–	Activity (qHTS) IC50 ([2]; 1,536-well AlphaScreen qHTS, N/D = not detectable): IC50: N/D
CN(C)[C@@H]1C(O)=C(C(=O)NCN2CCCC2)C(=O)[C@@]2(O)C(O)=C3C(=O)c4c(O)cccc4[C@@](C)(O)C3CC12 (some centres unmarked)	0.71	–	–
CN(C)[C@@H]1C(O)=C(C(N)=O)C(=O)[C@@]2(O)C(O)=C3C(=O)c4c(O)cccc4[C@@](C)(O)[C@H]3[C@H](O)[C@@H]12	0.5	–	–
CN(C)[C@@H]1C(O)=C(C(N)=O)C(=O)[C@]2(O)C(O)=C3C(=O)c4c(O)cccc4[C@@](C)(O)[C@H]3[C@H](O)[C@@H]12	1.59	–	–
CN(C)[C@@H]1C(=O)C(C(N)=O)=C(O)[C@@]2(O)C(O)=C3C(=O)c4c(O)cccc4[C@@](C)(O)[C@H]3[C@H](O)[C@@H]12	–	–	IC50 [2]: 0.4 µM
[O]=[V]([O-])([O-])[O-] [vanadate, reference compound]	–	–	Tdp1 inhibition potency range ([2]; AlphaScreen assay set-up in 384-well plates): sub-millimolar
